1 molecule from US20230043518A1, “CANCER IMMUNOTHERAPY” (AXELIA ONCOLOGY PTY LTD, priority 2019, published 2023) can be followed below.

The subject of the series is 4T1.2 (breast cancer). Description: 4T1.2 breast cancer metastasis model. The series is classed as in vivo, mouse. The settings on record: compound 1 combined with anti-PD1 (data not shown). As to the method: C57BL/6 or Balb/c Wild-type (WT) mice were purchased from Walter and Eliza Hall Institute for Medical Research or bred in house and maintained at the QIMR Berghofer Medical Research Institute. Mice greater than 8 weeks of age were sex-matched to the appropriate models. In all studies, no mice were excluded based on pre-established criteria and randomization was applied immediately prior to treatment in therapy experiments. Experiments were conducted as approved by the QIMR Berghofer Medical Research Institute Animal Ethics Committee.
Mouse B16F10 (melanoma), MC38 (colon adenocarcinoma) and 4T1.2 (breast cancer) cells were grown in Dulbecco's Modified Eagle Medium (DMEM) supplemented with 10% Fetal Calf Serum (Bovogen), 1% Glutamine (Gibco), and 1% Penicillin/Streptomycin (Gibco). B16F10 and 4T1.2 cells were maintained at 37° C., 5% CO2. MC38 cells were maintained at 37° C., 10% CO2. All cell lines were routinely tested negative for Mycoplasma, but cell line authentication was not routinely performed.
5×10^4 4T1.2 cells were injected into the 4th mammary fat pad in a volume of 50 μl (day 0). On day 12 after injection, primary tumours were surgically removed under isoflurane anesthesia. Mice were injected treated as indicated in figure legends on day 15, 18 and 21 after tumour cell injection. […] For this, macroscopic visible lung metastases were counted. […]

The structures appear in SMILES notation.

Take `CCCCCCCCCCCCCCCC(=O)OCC(CSCC(N)C(=O)N[C@@H](CO)C(=O)NCCOCCOCCOCCOCCOCCOCCOCCOCCOCCOCCOCCOCCC(=O)NCC(N)=O)OC(=O)CCCCCCCCCCCCCCC` (stereo partly shown) [compound 1]: the weight loss result is “without affecting weight loss”.
